These results are taken from US20240391928A1, “COMPOSITIONS FOR THE TREATMENT OF FOOD AND CHEMICAL ADDICTION AND METHODS OF MAKING AND USING SAME” (Duke University, priority 2021, published 2024).

In test [1] the test system is DAT knockout (KO) mice. Description: Spontaneous hyperlocomotion in DAT KO mice (open field). As to conditions: 2.5, 5, or 10 mg/kg, IP; 120 minutes. It is filed as in vivo, mouse. The procedure:
To evaluate the effect of N8279 on DAergic-modulated behavior in vivo, DAT knockout (KO) mice, which have constitutively elevated extracellular DA levels and consequently, spontaneous hyperactivity in a novel, open-field were used. After a 30 minute acclimation period, male and female DAT KO mice were administered vehicle or pharmacologically-relevant, brain penetrant doses of N8279 (FIG. 4A; 2.5, 5, or 10 mg/kg, IP), then were returned to the open-field and locomotion measured for 120 minutes.
Novelty-induced locomotor activity in DAT KO and inbred C57BL/6J mice. Open-field locomotor activity in mice was performed similar to that described in Barak et al., ACS Chem Biol. (2016)11(7):1880-90, the disclosure of which is incorporated herein in its entirety. In brief, Age- and sex-matched, littermate DAT KO and inbred C57BL/6J mice between 2-6 months of age were used to measure locomotor activity in an Omnitech Digiscan activity monitor (20×20 cm2; Accuscan Instruments, Columbus, OH). Locomotor activity was measured at 5 minutes intervals. To evaluate the effects of compounds on locomotor behavior, the mice were placed in an activity monitor for a 20-minute habituation period, and afterwards injected with drug or vehicle, returned to the monitor, and locomotor activity was recorded over a period of 90 minutes.

For test [2], the target named is T1, hGHSR1a^WT-RLucII (Homo sapiens, UniProt Q92847).
T1 construct: expressed in transfected cells; host or cells: HEK293/T, transient
T1 sequence (Q92847 whole entry): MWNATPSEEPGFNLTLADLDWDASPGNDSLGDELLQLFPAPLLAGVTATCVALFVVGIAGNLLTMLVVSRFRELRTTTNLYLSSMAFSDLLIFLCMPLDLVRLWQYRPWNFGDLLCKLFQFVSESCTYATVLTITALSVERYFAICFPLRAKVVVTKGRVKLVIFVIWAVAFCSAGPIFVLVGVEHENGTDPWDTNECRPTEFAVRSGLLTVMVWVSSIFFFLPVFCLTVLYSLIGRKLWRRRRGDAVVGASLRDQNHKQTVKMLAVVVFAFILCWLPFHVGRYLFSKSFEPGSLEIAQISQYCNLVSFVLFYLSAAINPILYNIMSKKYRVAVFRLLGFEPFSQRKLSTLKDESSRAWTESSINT
Description: Bystander BRET internalization (MyrPalm-Venus). Type of test: cell-based. The following applies: over 60 minutes. The procedure:
Bystander BRET (bBRET). hGHSR1a^WT-RLucII and plasma membrane marker, MyrPalm^mVenus, or the early endosomal marker, 2×-FYVE^mVenus, was transiently co-transfected in HEK293/T cells at a ratio of 1:5 or 1:12.5, respectively. […] Plates were then read by a Mithras 940 plate reader every 5 minutes over 1 hour (MyrPalm^mVenus) or 2 hours (2×FYVE^mVenus) to determine a BRET ratios. To generate CR curves, the average net BRET over 60 minutes post-treatment was used.
For orientation: BRET reads energy transfer from a luciferase to a nearby fluorophore.

In test [3] the target is hGHSR1a^WT (Homo sapiens, UniProt Q92847). The test can be described thus: Gαq-dependent intracellular Ca2+ mobilization (iCa2+, miAeq). It is filed as cell-based. The arrangement: HEK293/T (transient); HEK293S Gαq knockout (transient, NanoBiT Gαq). The procedure:
Gαq-Dependent Intracellular Ca^2+ Mobilization. […] Cells were split into and seeded into 10 cm dishes without antibiotic selection and grown to confluency overnight. The next morning, cells were serum starved in 10 mL of clear opti-MEM (supplemented with L-glutamine and HEPES; Gibco, Waltham, MA) for 3-4 hours in a 37° C. incubator with 5% CO2. Then, 25 μL of coelenterazine H (NanoLight Technology, Pinetop, AZ) was added to each 10 mL dish and incubated for another 1-2 hours. For antagonist assays, test compounds were either added directly to the media in 10 cm dishes, or cells were collected by gentle washing/trituration and plated onto white, clear-bottomed 96-well plates for 30 minutes—1 hour. Once the coelenterazine H (or antagonist) incubation was complete, cells were harvested from the 10 cm dish by gentle washing/trituration and collected in a 15 mL conical tube. Cell suspensions were then immediately subjected to assay by injecting cells onto a white, clear-bottomed 96-well plate containing 2× test compounds. Luminescence was read without delay and for 10 seconds per well. To control for cell number variability, cells were lysed in 2× lysis buffer (100 mM CaCl2+0.2% Triton-X) immediately following the assay. The max ligand-induced response (Ca^2+ mobilization: net-miAeq) over 10 seconds was normalized by dividing the ligand-induced luminescence counts (L-miAeq) by the ligand-induced luminescence counts (L-MiAeq) plus the luminescence measured upon cell lysis (Lysis-miAeq). Relative, lysis-normalized data were then normalized to the appropriate control/reference condition.
(§1) For experiments with WT and Gt KO HEK293/S cells, […] of hGHSR1a^WT, 10 μg of miAEQ, and 2.5 μg of pcDNA3.1 was transiently transfected into 10 cm dishes and incubated overnight. […] Twenty-four hours later, experiments proceeded in accordance with the procedures described above. To control for any possible kinetic differences in genetically modified cell lines or GHSR1a variants, the average ligand-induced response over 10 seconds was calculated, then normalized by dividing the L-miAeq by the L-miAeq plus the Lysis-miAeq and normalized to the appropriate control/reference condition.

For test [4], the target named is GHSR1a (Homo sapiens, UniProt Q92847). Description: PRESTO-Tango GPCRome β-arr2 recruitment screen. The following applies: N8279 1 μM. Set-up: expressed in transfected cells. It is filed as cell-based. The procedure: Hits were defined as >3-fold activation above baseline. […] The assay quality was assessed by plotting duplicate, independent trial averages (derived from 4 independent wells) for each receptor as a point (X,Y). The corresponding plot of points for an ideal assay were fit by a regression line with the slope=1.
GHSR1a, sequence (Q92847 whole entry): as above

Test [5] concerns the target T2, hGHSR1a^WT in Gαq/11 KO HEK293/S cells (Homo sapiens, UniProt Q92847).
T2 construct: expressed in transfected cells; SRF-RE reporter); HEK293/S Gαq/11 KO and parental WT (iCa2+)
Description: iCa2+ in Gαq/11 KO HEK293/S cells. Type of test: cell-based. As to conditions: 10 μM ligand. Here is the method:
as §1

Test [6] addresses T3, GHSR1a^N305A (Homo sapiens, UniProt Q92847, N305A).
T3 construct: expressed in transfected cells; host or cells: HEK293/T
The test can be described thus: TRUPATH Gαq dissociation at N305A mutant. It is filed as cell-based.

The target of test [7] is T4, hGHSR1a^WT-RLucII / mVenus-β-arr2 (Homo sapiens, UniProt Q92847).
T4 construct: expressed in transfected cells; host or cells: HEK293/T, transient
T4 sequence (Q92847 whole entry): as above
T4 sequence (P32121 whole entry partner): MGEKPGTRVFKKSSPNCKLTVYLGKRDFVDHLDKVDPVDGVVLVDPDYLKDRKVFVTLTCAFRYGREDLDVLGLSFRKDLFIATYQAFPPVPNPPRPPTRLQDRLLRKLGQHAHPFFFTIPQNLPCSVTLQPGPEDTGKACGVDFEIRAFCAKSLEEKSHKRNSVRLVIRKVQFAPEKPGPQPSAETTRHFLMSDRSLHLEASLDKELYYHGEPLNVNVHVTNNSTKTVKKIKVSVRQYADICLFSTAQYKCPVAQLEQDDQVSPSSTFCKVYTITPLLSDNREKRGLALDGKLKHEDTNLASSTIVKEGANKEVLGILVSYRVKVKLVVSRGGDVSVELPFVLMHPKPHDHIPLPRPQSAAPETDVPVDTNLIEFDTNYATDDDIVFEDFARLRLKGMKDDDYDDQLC
The test can be described thus: BRET β-arr2 recruitment. Type of test: cell-based.
Description: The morning after transfection, media was exchanged and after 4-6 hours, cells were then plated on white 96-well, clear-bottomed assay plates at a density of 45,000 cells/well in opti-MEM supplemented with 2% FBS and antibiotic/antimycotic. The following morning, opti-MEM was removed and cells were incubated with 70-80 μL HBSS supplemented with 20 mM HEPES (pH 7.4) for 4 hours. Cells were then treated with 10 μL of coelenterazine H (5 μM final) for 5-10 minutes at room temperature.

In test [8] the target is hGHSR1a^A204E (Homo sapiens, UniProt Q92847, A204E). Description: NanoBiT β-arr2 recruitment at A204E variant. As to conditions: did not reach saturation.
hGHSR1a^A204E, sequence (Q92847 whole entry A204E): as the sequence (Q92847 whole entry) above, with A204E counted along it
hGHSR1a^A204E, sequence (P32121 whole entry partner): as the sequence (P32121 whole entry partner) above
Description: β-arr2 recruitment: In agonist and antagonist assays of NanoBiT-based β-arr2 recruitment, hGHSR1a^WT-Lg^BiT and ^SmBiT-β^WT were transiently co-transfected at a 1:1 ratio (250 μg each) into monolayers of HEK293/T cells on 6-well plates along with 2 μg of pcDNA3.1. For assays employing the Ala204Glu variant, hGHSR1a^A204E-Lg^BiT was transfected at 2×hGHSR1a^WT-Lg^BiT, as performed for iCa^2+ assays with hGHSR1a^A204E described above. For GHSR1a-β-arr2 saturation assays, a fixed amount of hGHSR1a^WT-Lg^BiT cDNA (250 μg) was transfected with 0, 62.5 (1:0.25), 125 (1:0.5), 250 (1:1), 500 (1:2), or 1000 (1:4) μg of ^SmBiTβ-arr^WT. The morning after transfection, media was exchanged and after 4-6 hours, cells were then plated on white 96-well, clear-bottomed assay plates at a density of 45,000 cells/well in opti-MEM supplemented with 2% FBS and antibiotic/antimycotic. The following morning, opti-MEM was removed and cells were incubated with 70-80 μL HBSS supplemented with 20 mM HEPES (pH 7.4) for 4 hours. Cells were then treated with 10 μL of coelenterazine H (5 μM final) for 15-20 minutes at room temperature. Cells were then stimulated with 10 μL of test compounds and 2 minutes later, luminescence was measured over 5 minutes, which encompassed the peak β-arr2 recruitment signal.

Entries after “also recorded” stand apart in the source; their conditions may differ.

hGHSR1a^WT, sequence (Q92847 whole entry): as the sequence (Q92847 whole entry) above
T3 sequence (Q92847 whole entry N305A): as the sequence (Q92847 whole entry) above, with N305A counted along it
T2 sequence (Q92847 whole entry): as the sequence (Q92847 whole entry) above

Turning to `COc1ccc(C(=O)c2c(C(=O)NCCCN(C)C)oc3ccc(Cl)cc3c2=O)cc1OC` [Example N8279, 6-Chloro-3-(3,4-dimethoxybenzoyl)-N-(3-(dimethylamino)propyl)-4-oxo-4H-chromene-2-carboxamide], the “hyperlocomotion in DAT KO mice in words” value in test [1] is on record as “reduced locomotion; also recorded: reduced overall hyperlocomotion”. In test [2], the “internalization efficacy attenuation relative to ghrelin (bBRET MyrPalm)” value is about 20% and the “internalization potency reduction relative to ghrelin (bBRET MyrPalm)” value is 32 fold. Also, in test [3], the “iCa2+ EC50, fold more potent than own GHSR1a binding IC50” value is reported as 41 fold; the “iCa2+ potency, fold less potent than L585” value was determined as 3.4 fold; the “iCa2+ potency, fold less potent than MK-0677” value turned out to be 5.3 fold; the “iCa2+ potency, fold more potent than ghrelin” value is reported as 8.9 fold. The “increase in ghrelin's iCa2+ potency by N8279” value in test [3] (N8279 10 μM, concomitant) is given as about 3 fold. Further, the “modulation of ghrelin-induced iCa2+ in words” value in test [3] (concomitant N8279) is “weak ago-PAM activity”. For the same compound, the “iCa2+ efficacy in words” value in test [3] (relative to ghrelin) is reported as “full agonist”. Also, in test [4], the “activation above baseline at GHSR1a” value is 6 fold. Also, in test [5], the “agonist-induced iCa2+ in Gαq/11 KO cells” value is on record as “abolished”. Further, in test [6], the “Gαq dissociation at GHSR1a^N305A in words” value is recorded as “reduced dramatically”. Moreover, the “BRET β-arr2 recruitment, fold less potent than ghrelin” value in test [7] is given as about 100 fold. Further, in test [8], the “β-arr2 recruitment potency reduction at GHSR1a^A204E vs WT” value is over 20 fold.
